# Results from US20260166038A1, “METHOD OF ENHANCING THE EFFICACY OF A TARGETED PROTEIN DEGRADER AND ITS DERIVATIVE THERAPEUTICS” (ShanghaiTech University, priority 2022, published 2026).
# How the values were obtained:
# BRD4 = biological target: T1, BRD4 (Homo sapiens, UniProt O60885); test: Western blot of BRD4 protein level in OPM2; assay type: cell-based; conditions: ARV-771 0.5 nM or 1 nM + rapamycin 20 nM, 24 hours
# T1 construct: endogenous in cells; host or cells: OPM2 myeloma cell line
# Experimental: (§1) The protein levels were analyzed using Western blot.
# Different concentrations of ARV-771 (0, 0.5, 1 nM) and a fixed concentration of rapamycin (20 nM) were added to the myeloma cell line OPM2.
# [1] = tested on: DEPDC5 knockout OPM2 cells; test: Cell viability (CellTiter-Lumi) of DEPDC5 knockout OPM2 under immunomodulatory drugs; assay type: cell-based, human; conditions: DEPDC5-KO OPM2; drug gradients starting from 1 μM; 5 days
# Experimental: (§2) • (1) OPM2 cells in the logarithmic growth phase were seeded in a 96-well plate at 3000 cells/well. The volume of the cell suspension is 90 μl/well. • (2) Each well was added with 10 μl lenalidomide (Len), pomalidomide (Pom), CC-122, or CC-220 down the concentration gradients starting from 1 μM. Control groups with no drug treatment were set. Each drug had 7 gradients with 3 replicates. • (3) The plate was placed in a humidity-controlled environment (37° C., 5% CO2) for 5 days. • (4) Subsequently, 50 μl of CTL solution was added to each well under dark conditions. Then, the plate was placed on a shaker and shaken for 10 minutes, followed by reading on a microplate reader. • (5) The average absorbance values of the 3 replicates were used to plot the cell viability curves of OPM2 under drug treatment.
# (§3) Cell viability was measured using the CellTiter-Lumi luminescent cell viability assay kit (Beyotime), with luminescence intensity reflecting cell viability, through an ATP-catalyzed luciferase reaction in the cell culture medium.
# GSPT1 [2] = biological target: T2, GSPT1 (Homo sapiens, UniProt P15170+Q96SW2); test: Western blot of GSPT1 protein level in leukemia cell lines HL60 and MOLT-4; assay type: cell-based; conditions: degrader (10 nM CC90009) co-administered with varying concentrations of rapamycin; HL60, MOLT-4; 12 h
# T2 sequence (P15170 whole entry): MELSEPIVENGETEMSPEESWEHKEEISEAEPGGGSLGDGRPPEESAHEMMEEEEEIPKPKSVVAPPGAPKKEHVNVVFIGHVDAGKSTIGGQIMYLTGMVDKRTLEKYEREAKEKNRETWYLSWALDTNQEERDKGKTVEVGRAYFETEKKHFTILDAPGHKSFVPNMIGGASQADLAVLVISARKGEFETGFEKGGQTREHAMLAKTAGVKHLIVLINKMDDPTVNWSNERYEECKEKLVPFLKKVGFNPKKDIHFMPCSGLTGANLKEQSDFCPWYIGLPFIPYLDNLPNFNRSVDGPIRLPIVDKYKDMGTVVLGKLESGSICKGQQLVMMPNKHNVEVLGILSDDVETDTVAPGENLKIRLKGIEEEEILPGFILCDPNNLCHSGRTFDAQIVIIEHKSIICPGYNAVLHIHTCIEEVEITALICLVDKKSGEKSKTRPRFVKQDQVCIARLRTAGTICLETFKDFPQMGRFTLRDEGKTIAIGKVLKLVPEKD
# T2 sequence (Q96SW2 whole entry): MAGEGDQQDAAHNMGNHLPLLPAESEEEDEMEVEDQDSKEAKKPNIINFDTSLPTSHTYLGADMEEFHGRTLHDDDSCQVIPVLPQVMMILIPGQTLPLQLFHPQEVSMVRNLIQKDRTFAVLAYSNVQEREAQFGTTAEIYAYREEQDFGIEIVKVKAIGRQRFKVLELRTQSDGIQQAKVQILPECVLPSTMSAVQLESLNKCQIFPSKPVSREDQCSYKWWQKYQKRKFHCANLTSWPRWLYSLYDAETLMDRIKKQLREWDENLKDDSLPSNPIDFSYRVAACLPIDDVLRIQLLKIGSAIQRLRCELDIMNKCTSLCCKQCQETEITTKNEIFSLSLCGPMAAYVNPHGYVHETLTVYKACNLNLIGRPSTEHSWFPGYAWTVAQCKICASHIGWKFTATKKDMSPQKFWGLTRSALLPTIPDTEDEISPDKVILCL
# T2 sequence (Q16531 whole entry partner): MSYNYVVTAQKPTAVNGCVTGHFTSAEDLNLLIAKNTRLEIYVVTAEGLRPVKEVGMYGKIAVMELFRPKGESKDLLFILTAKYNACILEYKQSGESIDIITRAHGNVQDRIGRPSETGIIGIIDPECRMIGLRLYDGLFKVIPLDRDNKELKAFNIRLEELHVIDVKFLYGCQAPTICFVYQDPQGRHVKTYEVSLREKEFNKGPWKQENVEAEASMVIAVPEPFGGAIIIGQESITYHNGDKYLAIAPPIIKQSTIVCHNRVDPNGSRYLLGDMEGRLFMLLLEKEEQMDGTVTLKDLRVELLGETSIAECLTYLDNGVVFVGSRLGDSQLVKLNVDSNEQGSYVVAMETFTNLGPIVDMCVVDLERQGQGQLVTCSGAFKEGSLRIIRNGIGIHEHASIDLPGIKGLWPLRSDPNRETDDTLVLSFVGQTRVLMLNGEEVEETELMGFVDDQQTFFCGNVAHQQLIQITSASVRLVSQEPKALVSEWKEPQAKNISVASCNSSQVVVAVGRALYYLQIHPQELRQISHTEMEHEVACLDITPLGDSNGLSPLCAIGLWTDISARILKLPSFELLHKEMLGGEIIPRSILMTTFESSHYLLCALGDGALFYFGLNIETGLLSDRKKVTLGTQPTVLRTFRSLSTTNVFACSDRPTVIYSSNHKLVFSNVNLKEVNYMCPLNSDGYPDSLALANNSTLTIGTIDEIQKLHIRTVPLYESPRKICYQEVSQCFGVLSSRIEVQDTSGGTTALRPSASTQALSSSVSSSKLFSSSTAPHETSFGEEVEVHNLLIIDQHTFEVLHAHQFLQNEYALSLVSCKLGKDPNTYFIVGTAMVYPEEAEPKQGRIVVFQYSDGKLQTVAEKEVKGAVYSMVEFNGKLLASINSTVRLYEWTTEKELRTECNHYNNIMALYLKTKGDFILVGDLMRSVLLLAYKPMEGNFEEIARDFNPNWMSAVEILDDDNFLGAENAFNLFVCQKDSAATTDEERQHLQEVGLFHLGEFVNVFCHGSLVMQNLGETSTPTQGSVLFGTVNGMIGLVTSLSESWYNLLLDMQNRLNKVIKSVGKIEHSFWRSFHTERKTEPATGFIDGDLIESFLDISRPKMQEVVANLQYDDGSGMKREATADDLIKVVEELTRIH
# Experimental: as §1
# The samples were collected after 12 h, and the protein levels were examined by the same method as in Embodiment 3.
# GSPT1 [3] = biological target: T2, GSPT1; test: Western blot of GSPT1 protein level in pancreatic cancer cell line KP4; assay type: cell-based; design: endogenous in cells; host or cells: KP4 pancreatic cancer cell line; conditions: 24 hours
# IKZF3 [4] = biological target: T3, IKZF3 (Homo sapiens, UniProt Q96SW2+Q9UKT9); test: Western blot of IKZF3 in pomalidomide-resistant OPM2-P5000 and OPM2 cells; assay type: cell-based; conditions: pomalidomide-resistant myeloma cell line (OPM2-P5000; FIG. 7b OPM2); rapamycin 20 nM
# T3 construct: Cell pellets were collected after 24 h and were lysed using RIPA; The protein levels were analyzed using Western blot; endogenous in cells; host or cells: OPM2, RPMI-8226, U266 myeloma cell lines
# T3 sequence (Q9UKT9 whole entry): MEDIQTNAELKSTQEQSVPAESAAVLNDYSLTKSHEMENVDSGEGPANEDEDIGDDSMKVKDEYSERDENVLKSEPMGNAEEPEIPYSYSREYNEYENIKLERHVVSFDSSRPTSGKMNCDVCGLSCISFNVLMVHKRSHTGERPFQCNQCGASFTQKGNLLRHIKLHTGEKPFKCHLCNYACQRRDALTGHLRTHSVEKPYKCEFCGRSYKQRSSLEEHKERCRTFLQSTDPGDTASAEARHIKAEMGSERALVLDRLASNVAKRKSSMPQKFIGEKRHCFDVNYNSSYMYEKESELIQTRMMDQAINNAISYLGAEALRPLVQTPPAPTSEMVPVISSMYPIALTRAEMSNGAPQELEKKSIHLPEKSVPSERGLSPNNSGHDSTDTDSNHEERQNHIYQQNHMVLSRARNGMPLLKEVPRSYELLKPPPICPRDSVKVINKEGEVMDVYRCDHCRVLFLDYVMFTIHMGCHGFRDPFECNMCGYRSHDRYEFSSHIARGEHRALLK
# T3 sequence (Q96SW2 whole entry): as the sequence (Q96SW2 whole entry) above
# T3 sequence (Q16531 whole entry partner): as the sequence (Q16531 whole entry partner) above
# Experimental: as §1
# In this embodiment, the myeloma cell line OPM2, which is sensitive to pomalidomide was subjected to long-term high-dose pomalidomide treatment to obtain the pomalidomide-resistant cell line OPM2-P5000. Pomalidomide and CC-92480 (0.5 nM, 25 nM) were administered to OPM2 cells, and pomalidomide and CC-92480 (0.5 nM, 3 μM) were administered to OPM2-P5000 cells. These treatments were combined with a fixed concentration of rapamycin (20 nM).
# OPM2-P5000 = test: Cell viability of pomalidomide-resistant OPM2-P5000 cells; assay type: cell-based, human; conditions: CC-92480 3 μM + rapamycin 20 nM, viability at 0, 96, 120 h
# Experimental: as §2, §3
# Meanwhile, this embodiment provides the following groups for cell viability test in the pomalidomide-resistant myeloma cell line OPM2-P5000: rapamycin alone (20 nM), pomalidomide alone (3 μM), CC-92480 alone (3 μM), combination treatment, and control. Cell viability was assessed on Oh, 96 h and 120 h post drug treatment using the same method as in Embodiment 1.
# Wee1 = biological target: T4, Wee1 (Homo sapiens, UniProt P30291); test: Western blot of Wee1 protein level in OPM2; assay type: cell-based; conditions: ZNL-02-096 10 nM + rapamycin 20 nM, 24 hours
# T4 construct: endogenous in cells; host or cells: OPM2 myeloma cell line
# T4 sequence (P30291 whole entry): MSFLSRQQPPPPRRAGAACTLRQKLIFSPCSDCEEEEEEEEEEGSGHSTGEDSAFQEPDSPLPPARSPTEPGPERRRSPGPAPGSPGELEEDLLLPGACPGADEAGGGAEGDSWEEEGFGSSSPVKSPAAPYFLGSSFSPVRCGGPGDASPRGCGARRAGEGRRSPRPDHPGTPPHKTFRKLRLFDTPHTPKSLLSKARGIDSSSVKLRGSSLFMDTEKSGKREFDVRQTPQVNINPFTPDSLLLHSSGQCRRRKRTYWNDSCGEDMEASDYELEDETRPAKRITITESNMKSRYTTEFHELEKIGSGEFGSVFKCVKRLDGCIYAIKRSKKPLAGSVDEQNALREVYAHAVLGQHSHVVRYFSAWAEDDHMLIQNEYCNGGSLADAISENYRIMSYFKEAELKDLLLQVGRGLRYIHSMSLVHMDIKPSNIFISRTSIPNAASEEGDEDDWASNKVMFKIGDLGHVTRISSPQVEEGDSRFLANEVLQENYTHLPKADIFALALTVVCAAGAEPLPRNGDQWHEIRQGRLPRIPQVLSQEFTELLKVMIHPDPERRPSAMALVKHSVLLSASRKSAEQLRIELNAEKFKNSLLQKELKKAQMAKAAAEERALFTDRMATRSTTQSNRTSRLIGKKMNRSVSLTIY
# Experimental: as §1
# Different concentrations of ZNL-02-096 (0, 1, 10 nM) and a fixed concentration of rapamycin (20 nM) were added to the myeloma cell line OPM2.
# RBM39 = biological target: T5, RBM39 (Homo sapiens, UniProt Q14498); test: Western blot of RBM39 protein level in OPM2; assay type: cell-based; conditions: indisulam 1 μM + rapamycin 20 nM, 24 hours
# T5 construct: endogenous in cells; host or cells: OPM2 myeloma cell line
# T5 sequence (Q14498 1-530): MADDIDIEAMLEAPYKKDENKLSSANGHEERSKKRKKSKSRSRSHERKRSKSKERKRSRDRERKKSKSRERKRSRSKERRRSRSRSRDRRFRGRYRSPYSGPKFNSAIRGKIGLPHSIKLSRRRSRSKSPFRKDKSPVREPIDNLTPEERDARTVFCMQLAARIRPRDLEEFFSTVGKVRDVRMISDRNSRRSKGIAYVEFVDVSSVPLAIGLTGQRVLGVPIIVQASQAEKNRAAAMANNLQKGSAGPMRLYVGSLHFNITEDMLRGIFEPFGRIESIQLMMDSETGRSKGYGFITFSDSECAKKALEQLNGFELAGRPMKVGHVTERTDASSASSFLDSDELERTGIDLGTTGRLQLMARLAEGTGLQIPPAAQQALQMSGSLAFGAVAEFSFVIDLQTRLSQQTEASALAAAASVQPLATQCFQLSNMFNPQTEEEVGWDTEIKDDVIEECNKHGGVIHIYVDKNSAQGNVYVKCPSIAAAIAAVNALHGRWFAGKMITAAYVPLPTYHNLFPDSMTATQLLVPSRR
# Experimental: as §1
# Different concentrations of indisulam (0, 0.1, 1 μm) and a fixed concentration of rapamycin (20 nM) were added to the myeloma cell line OPM2. After 24 hours, protein levels were analyzed using the same method as in Embodiment 3.
# MM1S = test: Cell viability, pomalidomide combined with rapamycin, MM1S; assay type: cell-based, human; conditions: MM1S (pomalidomide-sensitive); viability at 0, 48, 96, 120 h; P<0.001
# Experimental: as §2, with “Each drug had 7 gradients with 3 replicates. • (3) The plate was placed in a humidity-controlled environment (37° C., 5% CO2) for 5 days. • (4) Subsequently, 50 μl of CTL solution was added to each well under dark conditions.” left out
# as §3
# (§4) In this embodiment, the pomalidomide-sensitive myeloma cell lines (MM1S, H929 and OPM2) and the pomalidomide-resistant myeloma cell lines (U266 and RPMI-8226) were treated with mTOR signaling pathway inhibitor rapamycin alone, pomalidomide alone, a combination of rapamycin and pomalidomide, and control, respectively. Cell viability was assessed on Oh, 48 h, 96 h and 120 h post drug treatment. The detection used on each day is the same and has been described in Embodiment 1.
# H929 = test: Cell viability, pomalidomide combined with rapamycin, H929; assay type: cell-based, human; conditions: H929 (pomalidomide-sensitive); viability at 0, 48, 96, 120 h; P<0.001
# Experimental: as §2, with “Each drug had 7 gradients with 3 replicates. • (3) The plate was placed in a humidity-controlled environment (37° C., 5% CO2) for 5 days. • (4) Subsequently, 50 μl of CTL solution was added to each well under dark conditions.” left out
# as §3, §4
# OPM2 = test: Cell viability, pomalidomide combined with rapamycin, OPM2; assay type: cell-based, human; conditions: OPM2 (pomalidomide-sensitive); viability at 0, 48, 96, 120 h; P<0.001
# Experimental: as §2, with “Each drug had 7 gradients with 3 replicates. • (3) The plate was placed in a humidity-controlled environment (37° C., 5% CO2) for 5 days. • (4) Subsequently, 50 μl of CTL solution was added to each well under dark conditions.” left out
# as §3, §4
# U266 = test: Cell viability, pomalidomide combined with rapamycin, U266; assay type: cell-based, human; conditions: U266 (pomalidomide-resistant); viability at 0, 48, 96, 120 h; P<0.001
# Experimental: as §2, with “Each drug had 7 gradients with 3 replicates. • (3) The plate was placed in a humidity-controlled environment (37° C., 5% CO2) for 5 days. • (4) Subsequently, 50 μl of CTL solution was added to each well under dark conditions.” left out
# as §3, §4
# RPMI-8226 = test: Cell viability, pomalidomide combined with rapamycin, RPMI-8226; assay type: cell-based, human; conditions: RPMI-8226 (pomalidomide-resistant); viability at 0, 48, 96, 120 h; P<0.001
# Experimental: as §2, with “Each drug had 7 gradients with 3 replicates. • (3) The plate was placed in a humidity-controlled environment (37° C., 5% CO2) for 5 days. • (4) Subsequently, 50 μl of CTL solution was added to each well under dark conditions.” left out
# as §3, §4
# IKZF3 [5] = biological target: T3, IKZF3; test: Western blot of IKZF3 protein level in myeloma cell lines; assay type: cell-based
# IKZF1 = IKZF1 (Homo sapiens, UniProt Q13422+Q96SW2)
# Chain of IKZF1 (Q16531 whole entry): as the sequence (Q16531 whole entry partner) above
# Chain of IKZF1 (Q96SW2 whole entry): as the sequence (Q96SW2 whole entry) above
# Chain of IKZF1 (Q13422 whole entry): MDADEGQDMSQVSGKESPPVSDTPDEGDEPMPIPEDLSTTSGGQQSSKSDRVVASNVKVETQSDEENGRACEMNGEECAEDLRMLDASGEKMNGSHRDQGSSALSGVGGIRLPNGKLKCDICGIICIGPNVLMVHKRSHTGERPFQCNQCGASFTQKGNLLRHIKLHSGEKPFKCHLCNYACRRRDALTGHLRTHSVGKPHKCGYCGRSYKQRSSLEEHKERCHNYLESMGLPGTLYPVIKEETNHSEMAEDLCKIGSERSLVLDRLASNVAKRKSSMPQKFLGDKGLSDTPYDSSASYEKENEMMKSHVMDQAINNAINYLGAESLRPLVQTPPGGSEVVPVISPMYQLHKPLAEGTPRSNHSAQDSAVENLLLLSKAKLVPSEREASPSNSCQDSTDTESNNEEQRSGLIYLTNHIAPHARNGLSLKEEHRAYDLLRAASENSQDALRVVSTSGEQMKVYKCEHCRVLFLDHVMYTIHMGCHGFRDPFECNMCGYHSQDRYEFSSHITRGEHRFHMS
# Experimental: 25 nM of pomalidomide and varying concentrations of rapamycin were added to myeloma cell lines OPM2, RPMI-8226, and U266, respectively. Cell pellets were collected after 24 h and were lysed using RIPA. The protein levels were analyzed using Western blot.
# Different concentrations of ZNL-02-096 (0, 1, 10, 10^2, 10^3 nM) and a fixed concentration of pomalidomide (25 nM) were added to the myeloma cell line OPM2. After 24 hours, protein levels were detected using the same method as in Embodiment 3.
# [6] = pomalidomide 25 nM + varying concentrations of everolimus, OPM2, 24 hours
smiles,measurement,setting,value
Cc1ncsc1-c1ccc([C@H](C)NC(=O)[C@@H]2C[C@@H](O)CN2C(=O)[C@@H](NC(=O)COCCCOCCNC(=O)C[C@@H]2N=C(c3ccc(Cl)cc3)c3c(sc(C)c3C)-n3c(C)nnc32)C(C)(C)C)cc1 [ARV-771],"degradation of the substrate BRD4, combination with rapamycin vs alone",BRD4,stronger degradation effect
Cc1nc2cccc(N)c2c(=O)n1C1CCC(=O)NC1=O (stereo not shown) [CC-122],cell viability (killing curve) of DEPDC5 knockout cells compared to the control group,[1],exhibit resistance
O=C1CC[C@H](N2Cc3c(OCc4ccc(CN5CCOCC5)cc4)cccc3C2=O)C(=O)N1 [CC-220],cell viability (killing curve) of DEPDC5 knockout cells compared to the control group,[1],exhibit resistance
Cc1ccc(NC(=O)NCc2ccc3c(c2)CN(C2CCC(=O)NC2=O)C3=O)cc1Cl (stereo not shown) [CC-885],level of substrate protein GSPT1,GSPT1 [2],significantly reduced
same,"degradation of the substrate GSPT1, combination with everolimus","GSPT1 [3]; CC-90009 1 μM or CC-885 0.1 μM + everolimus 0.01, 0.1 μM",stronger degradation effect
same,"degradation of the substrate GSPT1, combination with rapamycin","GSPT1 [3]; CC-90009 1 μM or CC-885 0.1 μM + rapamycin 0.01, 0.1 μM",stronger degradation effect
N#Cc1ccc(N2CCN(Cc3ccc(COc4cccc5c4CN([C@H]4CCC(=O)NC4=O)C5=O)cc3)CC2)c(F)c1 [CC-92480],"degradation of the substrate IKZF3, co-administration with rapamycin",IKZF3 [4],enhance the degradation
same,"killing effect on myeloma cells, co-administered with rapamycin",OPM2-P5000,stronger killing effect
C=CCn1c(=O)c2cnc(Nc3ccc(N4CCN(CCCNc5cccc6c5C(=O)N(C5CCC(=O)NC5=O)C6=O)CC4)cc3)nc2n1-c1cccc(C(C)(C)O)n1 (stereo not shown) [ZNL-02-096],"degradation of the substrate Wee1, combination with rapamycin vs alone",Wee1,stronger degradation effect
NS(=O)(=O)c1ccc(S(=O)(=O)Nc2cccc3c(Cl)c[nH]c23)cc1 [indisulam],"degradation of the substrate RBM39, combination with rapamycin vs alone",RBM39,stronger degradation effect
Nc1cccc2c1CN(C1CCC(=O)NC1=O)C2=O (stereo not shown) [lenalidomide],cell viability (killing curve) of DEPDC5 knockout cells compared to the control group,[1],exhibit resistance
Nc1cccc2c1C(=O)N(C1CCC(=O)NC1=O)C2=O (stereo not shown) [pomalidomide],cell viability (killing curve) of DEPDC5 knockout cells compared to the control group,[1],exhibit resistance
same,"killing of myeloma cells, combination with rapamycin vs pomalidomide alone",MM1S,stronger effect in killing myeloma cells
same,"killing of myeloma cells, combination with rapamycin vs pomalidomide alone",H929,stronger effect in killing myeloma cells
same,"killing of myeloma cells, combination with rapamycin vs pomalidomide alone",OPM2,stronger effect in killing myeloma cells
same,"killing of myeloma cells, combination with rapamycin vs pomalidomide alone",U266,stronger effect in killing myeloma cells
same,"killing of myeloma cells, combination with rapamycin vs pomalidomide alone",RPMI-8226,stronger effect in killing myeloma cells
same,level of the substrate IKZF3,"IKZF3 [5]; 25 nM pomalidomide co-administered with varying concentrations of rapamycin, OPM2, RPMI-8226, U266, 24 h",significantly reduced
same,"degradation of the substrate IKZF3, combination with everolimus",IKZF3 [5]; [6],stronger degradation effect
same,degradation of IKZF1,"IKZF1; 25 nM pomalidomide co-administered with rapamycin, OPM2, RPMI-8226, U266, 24 h",enhances the degradation
same,"degradation of the substrate IKZF1, combination with everolimus",IKZF1; [6],stronger degradation effect
same,"degradation of the substrate IKZF3, co-administration with rapamycin",IKZF3 [4],enhance the degradation
